Here are results for 13 compounds from patent US5190940A, “Cholesterol ester hydrolase inhibitors” (American Home Products Corporation, priority 1991, dated 1993).

For assay [1], the target named is T1, cholesterol esterase (cholesterol ester hydrolase; CEH) (Bos taurus, UniProt P30122).
T1 construct: purchased Sigma C-1892; host or cells: bovine pancreas
T1 sequence (P30122 19-597): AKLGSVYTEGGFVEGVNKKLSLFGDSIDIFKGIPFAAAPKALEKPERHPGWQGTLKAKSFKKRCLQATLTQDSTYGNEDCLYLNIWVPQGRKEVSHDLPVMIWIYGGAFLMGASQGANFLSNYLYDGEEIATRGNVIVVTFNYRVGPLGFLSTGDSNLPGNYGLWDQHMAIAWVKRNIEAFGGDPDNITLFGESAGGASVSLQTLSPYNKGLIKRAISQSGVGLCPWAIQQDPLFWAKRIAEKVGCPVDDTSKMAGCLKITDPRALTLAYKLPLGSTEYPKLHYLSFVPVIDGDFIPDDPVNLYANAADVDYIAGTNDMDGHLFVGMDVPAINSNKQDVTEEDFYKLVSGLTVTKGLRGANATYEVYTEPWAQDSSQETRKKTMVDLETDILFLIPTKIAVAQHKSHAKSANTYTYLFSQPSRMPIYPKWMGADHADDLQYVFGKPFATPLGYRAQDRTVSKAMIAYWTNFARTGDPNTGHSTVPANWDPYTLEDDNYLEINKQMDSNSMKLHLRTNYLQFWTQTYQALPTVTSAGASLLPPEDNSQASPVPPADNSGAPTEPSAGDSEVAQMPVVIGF
The experiment in a line: Inhibition of cholesteryl ester formation by cholesterol esterase (CEH), in vitro. It is filed as biochemical, bovine. The method, then:
The ability of the compounds of this invention to inhibit the formation of cholesteryl esters and thereby interfere with and prevent assimilation of cholesterol into the lymphatic system and ultimately the blood stream was established by incubating the compounds at 37° C. with a mixture of cholesterol and oleic acid in the presence of buffered cholesterol esterase [([…]) Sigma No. C-1892, from bovine pancreas] and measuring the amount of ester formed, according to the procedure of Field, J. of Lipid Research, 25 389 (1984).

The subject of assay [2] is Absorption of ^14 C-Chol. The experiment in a line: In vivo cholesterol absorption study in normal rats, serum radioactivity after oral [4-^14 C] cholesterol. Conditions: suspended in olive oil, normal rat, 6 hr. The method, then:
The in vivo cholesterol absorption studies were conducted in normal rats by oral administration of the compound being tested suspended in olive oil followed by oral administration of [4-^14 C] cholesterol in propylene glycol, otherwise following the procedure of Cayen et al., J. Lipid Res. 20 162 (1979). The serum radioactivity was measured at six hours after dosing. The results of this study are reported in the following Table, where available, as percent decrease compared to control.

[3] abbreviates: 37° C., cholesterol and oleic acid, buffered cholesterol esterase from bovine pancreas, read-out: IC50 Against CEH (concentration that inhibits one-half of the ester formation).

Read-outs that look alike come from different tables or passages of the source.

In turn, `CCCCCCCN(Cc1ccc(CC(C)(C)C)cc1)C(=O)Oc1ccccc1-c1ccccc1` [Example 2, [[4-(2,2-Dimethylpropyl)phenyl]methyl]heptylcarbamic acid[1,1'-biphenyl]-2-yl ester] showed an IC50 in assay [1] of 100 µM.
In the case of `CC1(C)CCCN(C(=O)Oc2ccccc2-c2ccccc2)C1` [Example 6, 3,3-Dimethyl-1-piperidinecarboxylic acid[1,1'-biphenyl]-2-yl ester], the IC50 in assay [1] (setting [3]) was 38 µM.
Turning to `O=C(Oc1ccccc1-c1ccccc1)N1CCCCC1` [Example 7, 1-Piperidinecarboxylic acid[1,1'-biphenyl]-2-yl ester], in assay [2] (250 mg/kg), the “Effects on Absorption of ^14 C-Chol., percent decrease compared to control” value (“Effects … percent decrease compared to control” for short) is given as 19%. Moreover, the IC50 in assay [1] (setting [3]) turned out to be 0.08 µM.
For the compound `O=C(NCCCCc1ccccc1)Oc1ccccc1-c1ccccc1` [Example 5, (4-Phenylbutyl)carbamic acid[1,1'-biphenyl]-2-yl ester], in assay [2] (250 mg/kg), the “Effects … percent decrease compared to control” value is given as 46%. In assay [1], this compound showed an IC50 of 0.25 µM.
Compound `O=C(Oc1ccccc1-c1ccccc1)N1CCOCC1` [Example 10, 4-Morpholinecarboxylic acid[1.1'-biphenyl]-2-yl ester] gave an IC50 in assay [1] of 26 µM.
For `CC1CCN(C(=O)Oc2ccccc2-c2ccccc2)CC1` [Example 8, 4-Methyl-1-piperidinecarboxylic acid[1,1'-biphenyl]-2-yl ester], the IC50 in assay [1] (setting [3]) was determined as 0.8 µM.
On to `O=C(Oc1ccccc1-c1ccccc1)N1CCSCC1` [Example 11, 4-Thiomorpholinecarboxylic acid[1.1'-biphenyl]-2-yl ester], for which the “Effects … percent decrease compared to control” value in assay [2] (100 mg/kg) is reported as 21%. Moreover, the IC50 in assay [1] (setting [3]) amounted to 1.2 µM.
For `O=C(Oc1ccccc1-c1ccccc1)N1CCC(c2ccccc2)CC1` [Example 9, 4-Phenyl-1-piperidinecarboxylic acid[1.1'-biphenyl]-2-yl ester], in that order: 11% and 1.9 µM.
With `O=C(Oc1ccccc1-c1ccccc1)N1CCN(c2ccccc2)CC1` [Example 13, 4-Phenyl-1-piperazinecarboxylic acid[1,1'-biphenyl]-2-yl ester], the IC50 in assay [1] (setting [3]) amounted to 53 µM.
As to `CCCCCCCCNC(=O)Oc1ccccc1-c1ccccc1` [Example 1, Octylcarbamic acid[1.1'-biphenyl]-2-yl ester], the IC50 in assay [1] worked out at 1.5 µM.
With `O=C(NC1CCCCC1)Oc1ccccc1-c1ccccc1` [Example 3, Cyclohexylcarbamic acid[1,1'-biphenyl]-2-yl ester], the “Effects … percent decrease compared to control” value in assay [2] (100 mg/kg) worked out at 21%. Besides, the IC50 in assay [1] is 5 µM.
Compound `CN1CCN(C(=O)Oc2ccccc2-c2ccccc2)CC1` [Example 12, 4-Methyl-1-piperazinecarboxylic acid[1,1'-biphenyl]-2-yl ester] came in with an IC50 in assay [1] of 25 µM.
Regarding `O=C(NCC1CCCCC1)Oc1ccccc1-c1ccccc1` [Example 4, (Cyclohexylmethyl)carbamic acid[1,1'-biphenyl]-2-yl ester], the “Effects … percent decrease compared to control” value in assay [2] (100 mg/kg) is reported as 21%. The compound also came in with an IC50 in assay [1] of 3 µM.
